Laboratory results from US9957263B2, “Bromodomain inhibitors” (AbbVie Inc., priority 2013, dated 2018).
pKi: −log10 of the molar value.

Tests used:
[1] = biological target: BRD4 (BDI_K57-E168) (Homo sapiens (Human), UniProt O60885); assay: TR-FRET bromodomain binding assay, BRD4 first bromodomain; conditions: His-tagged BD1, Alexa647-labeled probe 100 nM
Description: (§1) A time-resolved fluorescence resonance energy transfer (TR-FRET) assay was used to determine the affinities of compounds of the Examples listed in Table 1 for each bromodomain of BRD4. His-tagged first (BD1: amino acids K57-E168) and second (BD2: amino acids E352-E168) bromodomains of BRD4 were expressed and purified. An Alexa647-labeled BET-inhibitor was used as the fluorescent probe in the assay.
(§2) Compound dilution series were prepared in DMSO via a 3-fold serial dilution from 2.5 mM to 42 nM. Compounds were then diluted 6:100 in assay buffer (20 mM Sodium Phosphate, pH 6.0, 50 mM NaCl, 1 mM Ethylenediaminetetraacetic acid disodium salt dihydrate, 0.01% Triton X-100, 1 mM DL-Dithiothreitol) to yield 3× working solutions. Six microliters (μL) of the working solution was then transferred to white, low-volume assay plates (Costar #3673). A 1.5× assay mixture containing His-tagged bromodomain, Europium-conjugated anti-His antibody (Invitrogen PV5596) and the Alexa-647-conjugated probe molecule was also prepared. Twelve μL of this solution were added to the assay plate to reach a final volume of 18 μL. The final concentration of 1× assay buffer contains 2% DMSO, 50 μM-0.85 nM compound, 8 nM His-tagged bromodomain, 1 nM Europium-conjugated anti-His-tag antibody and 100 nM or 30 nM probe (for BDI or BDII, respectively). After a one-hour incubation at room temperature, TR-FRET ratios were determined using an Envision multilabel plate reader (Ex 340, Em […]).
(§3) TR-FRET data were normalized to the means of 24 no-compound controls (“high”) and 8 controls containing 1 μM un-labeled probe (“low”). Percent inhibition was plotted as a function of compound concentration and the data were fit with the 4 parameter logistic equation to obtain IC50s. Inhibition constants (Ki) were calculated from the IC50s, probe Kd and probe concentration. Typical Z′ values were between 0.65 and 0.75. The minimum significant ratio was determined to evaluate assay reproducibility (Eastwood et al., (2006) J Biomol Screen, 11: 253-261). The MSR was determined to be 2.03 for BDI and 1.93 for BDII, and a moving MSR (last six run MSR overtime) for both BDI and BDII was typically <3.

[2] = biological target: BRD4 (BDII_E352-M457) (Homo sapiens (Human), UniProt O60885); assay: TR-FRET bromodomain binding assay, BRD4 second bromodomain; conditions: His-tagged BD2, Alexa647-labeled probe 30 nM
Description: as §1, §2, §3

Compound	pKi [1]	pKi [2]
CCS(=O)(=O)c1ccc(Oc2c(C)cccc2Cl)c(-c2cn(C)c(=O)c3[nH]c(C(=O)NCCC#N)cc23)c1 [Example 123, 4-[2-(2-chloro-6-methylphenoxy)-5-(ethylsulfonyl)phenyl]-N-(2-cyanoethyl)-6-methyl-7-oxo-6,7-dihydro-1H-pyrrolo[2,3-c]pyridine-2-carboxamide]	7.40	8.25
CCS(=O)(=O)Nc1cc(-c2cn(C)c(=O)c3[nH]ccc23)c(Oc2ccc(F)cc2F)cc1C(N)=O [Example 8, 5-(2,4-difluorophenoxy)-2-[(ethylsulfonyl)amino]-4-(6-methyl-7-oxo-6,7-dihydro-1H-pyrrolo[2,3-c]pyridin-4-yl)benzamide]	8.82	8.74
CCNC(=O)c1cc2c(-c3cc(S(=O)(=O)CC)ccc3Oc3c(C)cccc3CN3CCCC3=O)cn(C)c(=O)c2[nH]1 [Example 151, N-ethyl-4-[5-(ethylsulfonyl)-2-{2-methyl-6-[(2-oxopyrrolidin-1-yl)methyl]phenoxy}phenyl]-6-methyl-7-oxo-6,7-dihydro-1H-pyrrolo[2,3-c]pyridine-2-carboxamide]	6.09	8.00
Cn1cc(-c2cc(S(C)(=O)=O)ccc2Oc2cccc(NS(=O)(=O)c3ccc(F)cc3)c2)c2cc[nH]c2c1=O [Example 41, 4-fluoro-N-{3-[2-(6-methyl-7-oxo-6,7-dihydro-1H-pyrrolo[2,3-c]pyridin-4-yl)-4-(methylsulfonyl)phenoxy]phenyl}benzenesulfonamide]	7.96	8.29
CN(C)c1cccc(CNc2cccc(Oc3ccc(S(C)(=O)=O)cc3-c3cn(C)c(=O)c4[nH]ccc34)c2)c1 [Example 75, 4-[2-(3-{[3-(dimethylamino)benzyl]amino}phenoxy)-5-(methylsulfonyl)phenyl]-6-methyl-1,6-dihydro-7H-pyrrolo[2,3-c]pyridin-7-one]	8.07	8.54
Cn1cc(-c2cc(S(C)(=O)=O)ccc2Oc2cccc(NCC3CC3)c2)c2cc[nH]c2c1=O [Example 80, 4-[2-{3-[(cyclopropylmethyl)amino]phenoxy}-5-(methylsulfonyl)phenyl]-6-methyl-1,6-dihydro-7H-pyrrolo[2,3-c]pyridin-7-one]	7.72	8.34
Cn1cc(-c2cc(S(C)(=O)=O)ccc2Oc2ccc(F)cc2F)c2cc(CN3CCN(C4CCOCC4)CC3)[nH]c2c1=O [Example 116, 4-[2-(2,4-difluorophenoxy)-5-(methylsulfonyl)phenyl]-6-methyl-2-{[4-(tetrahydro-2H-pyran-4-yl)piperazin-1-yl]methyl}-1,6-dihydro-7H-pyrrolo[2,3-c]pyridin-7-one]	8.48	7.01
CCNC(=O)c1cc2c(-c3cc(S(=O)(=O)CC)ccc3Oc3c(C)cccc3Cn3ccnc3)cn(C)c(=O)c2[nH]1 [Example 150, N-ethyl-4-{5-(ethylsulfonyl)-2-[2-(1H-imidazol-1-ylmethyl)-6-methylphenoxy]phenyl}-6-methyl-7-oxo-6,7-dihydro-1H-pyrrolo[2,3-c]pyridine-2-carboxamide]	5.57	7.13
CCS(=O)(=O)Nc1cc(-c2cn(C)c(=O)c3[nH]ccc23)c(Oc2ccc(F)cc2F)cc1CN1CCN(C)CC1 [Example 5, N-{4-(2,4-difluorophenoxy)-5-(6-methyl-7-oxo-6,7-dihydro-1H-pyrrolo[2,3-c]pyridin-4-yl)-2-[(4-methylpiperazin-1-yl)methyl]phenyl}ethanesulfonamide]	7.80	8.77
CCNC(=O)c1cc2c(-c3cc(S(=O)(=O)CC)ccc3Oc3c(C)cccc3Cn3cccn3)cn(C)c(=O)c2[nH]1 [Example 145, N-ethyl-4-{5-(ethylsulfonyl)-2-[2-methyl-6-(1H-pyrazol-1-ylmethyl)phenoxy]phenyl}-6-methyl-7-oxo-6,7-dihydro-1H-pyrrolo[2,3-c]pyridine-2-carboxamide]	6.09	8.06
CN(C)CC(=O)N1CCC(Nc2ccc(S(C)(=O)=O)cc2-c2cn(C)c(=O)c3[nH]ccc23)CC1 [Example 85, 4-[2-({1-[(dimethylamino)acetyl]piperidin-4-yl}amino)-5-(methylsulfonyl)phenyl]-6-methyl-1,6-dihydro-7H-pyrrolo[2,3-c]pyridin-7-one]	8.10	7.22
Cn1cc(-c2cc(S(C)(=O)=O)ccc2Oc2ccc(F)cc2F)c2cc(CN3CCC(N4CCOCC4)CC3)[nH]c2c1=O [Example 130, 4-[2-(2,4-difluorophenoxy)-5-(methylsulfonyl)phenyl]-6-methyl-2-{[4-(morpholin-4-yl)piperidin-1-yl]methyl}-1,6-dihydro-7H-pyrrolo[2,3-c]pyridin-7-one]	8.00	6.97
Cc1cccc(C)c1Oc1ccc(S(C)(=O)=O)cc1-c1cn(C)c(=O)c2[nH]c(-c3nc(C4CC4)no3)cc12 [Example 135, 2-(3-cyclopropyl-1,2,4-oxadiazol-5-yl)-4-[2-(2,6-dimethylphenoxy)-5-(methylsulfonyl)phenyl]-6-methyl-1,6-dihydro-7H-pyrrolo[2,3-c]pyridin-7-one]	7.26	7.64
Cn1cc(-c2cc(S(C)(=O)=O)ccc2Oc2cccc(NS(=O)(=O)c3ccc(C#N)cc3)c2)c2cc[nH]c2c1=O [Example 56, 4-cyano-N-{3-[2-(6-methyl-7-oxo-6,7-dihydro-1H-pyrrolo[2,3-c]pyridin-4-yl)-4-(methylsulfonyl)phenoxy]phenyl}benzenesulfonamide]	8.06	8.47
Cn1cc(-c2cc(S(C)(=O)=O)ccc2Oc2cccc(NS(=O)(=O)c3ccc(F)cc3Cl)c2)c2cc[nH]c2c1=O [Example 58, 2-chloro-4-fluoro-N-{3-[2-(6-methyl-7-oxo-6,7-dihydro-1H-pyrrolo[2,3-c]pyridin-4-yl)-4-(methylsulfonyl)phenoxy]phenyl}benzenesulfonamide]	8.33	8.62
CCS(=O)(=O)Nc1cc(-c2cn(C)c(=O)c3[nH]ccc23)c(Oc2ccc(F)cc2F)cc1C(=O)NC1CCOCC1 [Example 12, 5-(2,4-difluorophenoxy)-2-[(ethylsulfonyl)amino]-4-(6-methyl-7-oxo-6,7-dihydro-1H-pyrrolo[2,3-c]pyridin-4-yl)-N-(tetrahydro-2H-pyran-4-yl)benzamide]	8.74	8.80
Cn1cc(-c2cc(S(C)(=O)=O)ccc2NC2CCN(S(=O)(=O)c3ccccc3)CC2)c2cc[nH]c2c1=O [Example 84, 6-methyl-4-[5-(methylsulfonyl)-2-{[1-(phenylsulfonyl)piperidin-4-yl]amino}phenyl]-1,6-dihydro-7H-pyrrolo[2,3-c]pyridin-7-one]	8.33	8.05
Cn1cc(-c2cc(S(C)(=O)=O)ccc2NC2CCN(S(=O)(=O)c3cccs3)CC2)c2cc[nH]c2c1=O [Example 106, 6-methyl-4-[5-(methylsulfonyl)-2-{[1-(thiophen-2-ylsulfonyl)piperidin-4-yl]amino}phenyl]-1,6-dihydro-7H-pyrrolo[2,3-c]pyridin-7-one]	8.10	8.19
Cc1cc(C)n(C2CN(Cc3cc4c(-c5cc(S(C)(=O)=O)ccc5Oc5ccc(F)cc5F)cn(C)c(=O)c4[nH]3)C2)n1 [Example 129, 4-[2-(2,4-difluorophenoxy)-5-(methylsulfonyl)phenyl]-2-{[3-(3,5-dimethyl-1H-pyrazol-1-yl)azetidin-1-yl]methyl}-6-methyl-1,6-dihydro-7H-pyrrolo[2,3-c]pyridin-7-one]	7.80	7.06
Cn1cc(-c2cc(S(C)(=O)=O)ccc2Oc2cccc(NCCC3CCCC3)c2)c2cc[nH]c2c1=O [Example 81, 4-[2-{3-[(2-cyclopentylethyl)amino]phenoxy}-5-(methylsulfonyl)phenyl]-6-methyl-1,6-dihydro-7H-pyrrolo[2,3-c]pyridin-7-one]	7.46	8.00
CCS(=O)(=O)c1ccc(Oc2c(C)cccc2Cl)c(-c2cn(C)c(=O)c3[nH]c(C(=O)NCC(=O)N4CCCCC4)cc23)c1 [Example 122, 4-[2-(2-chloro-6-methylphenoxy)-5-(ethylsulfonyl)phenyl]-6-methyl-7-oxo-N-[2-oxo-2-(piperidin-1-yl)ethyl]-6,7-dihydro-1H-pyrrolo[2,3-c]pyridine-2-carboxamide]	7.41	8.12
Cc1cccc(C)c1Oc1ccc(S(C)(=O)=O)cc1-c1cn(C)c(=O)c2[nH]c(-c3nc(-c4cccnc4)no3)cc12 [Example 138, 4-[2-(2,6-dimethylphenoxy)-5-(methylsulfonyl)phenyl]-6-methyl-2-[3-(pyridin-3-yl)-1,2,4-oxadiazol-5-yl]-1,6-dihydro-7H-pyrrolo[2,3-c]pyridin-7-one]	7.05	8.13
